ChEMBL document CHEMBL1127385, “Synthesis and diuretic activity of alkyl- and arylguanidine analogs of N,N'-dicyclohexyl-4-morpholinecarboxamidine in rats and dogs” (J Med Chem, 1994)
“And” between values parts separate entries of the source, which are not always exact repeats. Equal entries are not always repeated.

Columns and labels:
Canis familiaris [1] = assay: Total electrolytic excretion of sodium in urine of dogs after peroral administration of 50.8 uM/Kg of drug; format: ADME, organism-based, Canis lupus familiaris; settings: dog, in vivo, po
Canis familiaris [2] = organism: Canis familiaris; assay: Systemic cardio vascular Hemodynamics of total peripheral resistance was measured in Beagle dogs in pretreatment control group; format: functional, Canis lupus familiaris, Heart
Canis familiaris [3] = organism: Canis familiaris; assay: Systemic cardio vascular Hemodynamics of cardiac index was measured in Beagle dogs in pretreatment control group; format: functional, Canis lupus familiaris, Heart
Canis familiaris [4] = assay: Tested for the diuretic activity by measuring the urinary volume after peroral administering 34.1 uM/Kg of drug in dogs; settings: dog, in vivo, po
Rattus norvegicus [5] = assay: Total electrolytic excretion of chlorine in urine of rats after peroral administration of 341 uM/Kg of drug; format: ADME, organism-based; settings: in vivo, po
Canis familiaris [6] = assay: Tested for the diuretic activity by measuring the urinary volume after intravenous administering 30.3 uM/Kg of drug in dogs; format: ADME, organism-based, Canis lupus familiaris, Urine; settings: dog, in vivo
Canis familiaris [7] = organism: Canis familiaris; assay: Tissue vascular resistance of large intestine was measured in Beagle dogs after giving the dose of MNX; format: functional, Canis lupus familiaris
Rattus norvegicus [8] = assay: Ratio of Total electrolytic excretion of sodium and potassium in urine of rats after intravenous administration of 34.1 uM/Kg of drug; format: ADME, organism-based; settings: in vivo
Rattus norvegicus [9] = assay: Ratio of Total electrolytic excretion of sodium and potassium in urine of rats after peroral administration of 341 uM/Kg of drug; format: ADME, organism-based; settings: in vivo, po
Rattus norvegicus [10] = assay: Ratio of Total electrolytic excretion of sodium and potassium in urine of rats after peroral administration of 34.1 uM/Kg of drug; format: ADME, organism-based; settings: in vivo, po
Canis familiaris [11] = assay: Total electrolytic excretion of sodium in urine of dogs after intravenous administration of 3.03 uM/Kg of drug; format: ADME, organism-based, Canis lupus familiaris; settings: dog, in vivo
Canis familiaris [12] = organism: Canis familiaris; assay: Tissue vascular resistance of right atrium was measured in Beagle dogs after giving the dose of MNX plus the drug; format: functional, Canis lupus familiaris, Cardiac atrium
Canis familiaris [13] = assay: Tested for the diuretic activity by measuring the urinary volume after peroral administering 68.1 uM/Kg of drug in dogs; format: ADME, organism-based, Canis lupus familiaris, Urine; settings: dog, in vivo, po
Canis familiaris [14] = assay: Total electrolytic excretion of chlorine in urine of dogs after intravenous administration of 34.1 uM/Kg of drug; format: ADME, organism-based, Canis lupus familiaris; settings: dog, in vivo
Rattus norvegicus [15] = assay: Ratio of Total electrolytic excretion of sodium and potassium in urine of rats after peroral administration of 68.1 uM/Kg of drug; format: ADME, organism-based; settings: in vivo, po
Canis familiaris [16] = assay: Total electrolytic excretion of chlorine in urine of dogs after peroral administration of 50.8 uM/Kg of drug; format: ADME, organism-based, Canis lupus familiaris; settings: dog, in vivo, po
Canis familiaris [17] = organism: Canis familiaris; assay: Systemic cardio vascular Hemodynamics of cardiac index was measured in Beagle dogs after giving the dose of MNX; format: functional, Canis lupus familiaris, Heart
Canis familiaris [18] = organism: Canis familiaris; assay: Systemic cardio vascular Hemodynamics of mean arterial pressure was measured in Beagle dogs after giving the dose of MNX; format: functional, Canis lupus familiaris, Heart
Rattus norvegicus [19] = assay: Ratio of Total electrolytic excretion of sodium and potassium in urine of rats after peroral administration of 50.8 uM/Kg of drug; format: ADME, organism-based; settings: in vivo, po
Canis familiaris [20] = organism: Canis familiaris; assay: Tissue vascular resistance of right atrium was measured in Beagle dogs after giving the dose of MNX; format: functional, Canis lupus familiaris, Cardiac atrium
Canis familiaris [21] = organism: Canis familiaris; assay: Tissue vascular resistance of pancreas was measured in Beagle dogs after giving the dose of MNX; format: functional, Canis lupus familiaris
Canis familiaris [22] = assay: Total electrolytic excretion of chlorine in urine of dogs after intravenous administration of 3.03 uM/Kg of drug; format: ADME, organism-based, Canis lupus familiaris; settings: dog, in vivo
Canis familiaris [23] = assay: Tested for the diuretic activity by measuring the urinary volume after intravenous administering 3.03 uM/Kg of drug in dogs; format: ADME, organism-based, Canis lupus familiaris, Urine; settings: dog, in vivo
Rattus norvegicus [24] = assay: Tested for the diuretic activity by measuring the urinary volume after peroral administering 34.1 uM/Kg of drug in rats; format: ADME, organism-based, Urine; settings: in vivo, po
Rattus norvegicus [25] = assay: Tested for the diuretic activity by measuring the urinary volume after peroral administering 102 uM/Kg of drug in rats; format: ADME, organism-based, Urine; settings: in vivo, po
Canis familiaris [26] = organism: Canis familiaris; assay: Systemic cardio vascular Hemodynamics of mean arterial pressure was measured in Beagle dogs in pretreatment control group; format: functional, Canis lupus familiaris, Heart
Canis familiaris [27] = organism: Canis familiaris; assay: Systemic cardio vascular Hemodynamics of heart rate was measured in Beagle dogs in pretreatment control group; format: functional, Canis lupus familiaris
Canis familiaris [28] = organism: Canis familiaris; assay: Systemic cardio vascular Hemodynamics of heart rate was measured in Beagle dogs after giving the dose of MNX plus the drug; format: functional, Canis lupus familiaris
Rattus norvegicus [29] = assay: Ratio of Total electrolytic excretion of sodium and potassium in urine of rats after intravenous administration of 3.03 uM/Kg of drug; format: ADME, organism-based; settings: in vivo
Canis familiaris [30] = assay: Total electrolytic excretion of sodium in urine of dogs after peroral administration of 34.1 uM/Kg of drug; format: ADME, organism-based, Canis lupus familiaris; settings: dog, in vivo, po
Canis familiaris [31] = assay: Total electrolytic excretion of chlorine in urine of dogs after peroral administration of 102 uM/Kg of drug; format: ADME, organism-based, Canis lupus familiaris; settings: dog, in vivo, po
Canis familiaris [32] = assay: Total electrolytic excretion of chlorine in urine of dogs after peroral administration of 34.1 uM/Kg of drug; format: ADME, organism-based, Canis lupus familiaris; settings: dog, in vivo, po
Rattus norvegicus [33] = assay: Total electrolytic excretion of sodium in urine of rats after peroral administration of 341 uM/Kg of drug; format: ADME, organism-based; settings: in vivo, po
Canis familiaris [34] = assay: Total electrolytic excretion of potassium in urine of dogs after intravenous administration of 3.03 uM/Kg of drug; format: ADME, organism-based, Canis lupus familiaris; settings: dog, in vivo
Canis familiaris [35] = assay: Total electrolytic excretion of sodium in urine of dogs after peroral administration of 102 uM/Kg of drug; format: ADME, organism-based, Canis lupus familiaris; settings: dog, in vivo, po
Rattus norvegicus [36] = assay: Total electrolytic excretion of chlorine in urine of rats after peroral administration of 102 uM/Kg of drug; format: ADME, organism-based; settings: in vivo, po
Canis familiaris [37] = organism: Canis familiaris; assay: Systemic cardio vascular Hemodynamics of mean arterial pressure was measured in Beagle dogs after giving the dose of MNX plus the drug; format: functional, Canis lupus familiaris, Heart
Canis familiaris [38] = organism: Canis familiaris; assay: Tissue vascular resistance of left ventricle was measured in Beagle dogs before treatment after giving the dose of MNX plus the drug; format: functional, Canis lupus familiaris, Heart left ventricle
Canis familiaris [39] = assay: Tested for the diuretic activity by measuring the urinary volume after intravenous administering 34.1 uM/Kg of drug in dogs; format: ADME, organism-based, Canis lupus familiaris, Urine; settings: dog, in vivo
Canis familiaris [40] = assay: Total electrolytic excretion of chlorine in urine of dogs after intravenous administration of 9.09 uM/Kg of drug; format: ADME, organism-based, Canis lupus familiaris; settings: dog, in vivo
Canis familiaris [41] = assay: Total electrolytic excretion of chlorine in urine of dogs after peroral administration of 68.1 uM/Kg of drug; format: ADME, organism-based, Canis lupus familiaris; settings: dog, in vivo, po
Canis familiaris [42] = organism: Canis familiaris; assay: Systemic cardio vascular Hemodynamics of cardiac index was measured in Beagle dogs after giving the dose of MNX plus the drug; format: functional, Canis lupus familiaris, Heart
Canis familiaris [43] = organism: Canis familiaris; assay: Tissue vascular resistance of large intestine was measured in Beagle dogs after giving the dose of MNX plus the drug; format: functional, Canis lupus familiaris
Canis familiaris [44] = assay: Tested for the diuretic activity by measuring the urinary volume after peroral administering 102 uM/Kg of drug in dogs; format: ADME, organism-based, Canis lupus familiaris, Urine; settings: dog, in vivo, po
Canis familiaris [45] = organism: Canis familiaris; assay: Tissue vascular resistance of large intestine was measured in Beagle dogs before treatment; format: functional, Canis lupus familiaris
Canis familiaris [46] = assay: Total electrolytic excretion of potassium in urine of dogs after intravenous administration of 34.1 uM/Kg of drug; format: ADME, organism-based, Canis lupus familiaris; settings: dog, in vivo
Canis familiaris [47] = organism: Canis familiaris; assay: Systemic cardio vascular Hemodynamics of total peripheral resistance was measured in Beagle dogs after giving the dose of MNX; format: functional, Canis lupus familiaris, Heart
Rattus norvegicus [48] = assay: Ratio of Total electrolytic excretion of sodium and potassium in urine of rats after intravenous administration of 9.09 uM/Kg of drug; format: ADME, organism-based; settings: in vivo
Rattus norvegicus [49] = assay: Total electrolytic excretion of potassium in urine of rats after peroral administration of 341 uM/Kg of drug; format: ADME, organism-based; settings: in vivo, po
Canis familiaris [50] = assay: Tested for the diuretic activity by measuring the urinary volume after peroral administering 50.8 uM/Kg of drug in dogs; format: ADME, organism-based, Canis lupus familiaris, Urine; settings: dog, in vivo, po
Rattus norvegicus [51] = assay: Total electrolytic excretion of potassium in urine of rats after peroral administration of 50.8 uM/Kg of drug; format: ADME, organism-based; settings: in vivo, po
Canis familiaris [52] = organism: Canis familiaris; assay: Tissue vascular resistance of right atrium was measured in Beagle dogs before treatment; format: functional, Canis lupus familiaris, Cardiac atrium
Canis familiaris [53] = assay: Total electrolytic excretion of sodium in urine of dogs after intravenous administration of 30.3 uM/Kg of drug; format: ADME, organism-based, Canis lupus familiaris; settings: dog, in vivo

Excretion Na+ (Canis familiaris [1]): 11.9 m equiv
V (Canis familiaris [4]): 81 mL
Excretion Cl- (Rattus norvegicus [5]): 1.64 m equiv
V (Canis familiaris [6]): 114 mL
Ratio (Rattus norvegicus [8]): 17.4
Ratio (Rattus norvegicus [9]): 5
Ratio (Rattus norvegicus [10]): 3.6 and 9.6 and 9.1
Excretion Na+ (Canis familiaris [11]): 8.1 m equiv
V (Canis familiaris [13]): 91 mL
Excretion Cl- (Canis familiaris [14]): 16.4 m equiv
Ratio (Rattus norvegicus [15]): 8.6
Excretion Cl- (Canis familiaris [16]): 9.8 m equiv
Ratio (Rattus norvegicus [19]): 6.1
Excretion Cl- (Canis familiaris [22]): 5.4 m equiv
V (Canis familiaris [23]): 64 mL
V (Rattus norvegicus [24]): 6.6 mL
V (Rattus norvegicus [25]): 10 mL
Ratio (Rattus norvegicus [29]): 8.4
Excretion Na+ (Canis familiaris [30]): 9.9 m equiv
Excretion Cl- (Canis familiaris [31]): 19.6 m equiv
Excretion Cl- (Canis familiaris [32]): 9.4 m equiv
Excretion Na+ (Rattus norvegicus [33]): 1.73 m equiv
Excretion K+ (Canis familiaris [34]): 1.2 m equiv
Excretion Na+ (Canis familiaris [35]): 22.5 m equiv
Excretion Cl- (Rattus norvegicus [36]): 1.65 m equiv
V (Canis familiaris [39]): 132 mL
Excretion Cl- (Canis familiaris [40]): 9.6 m equiv
Excretion Cl- (Canis familiaris [41]): 12.3 m equiv
V (Canis familiaris [44]): 154 mL
Excretion K+ (Canis familiaris [46]): 1.3 m equiv
Ratio (Rattus norvegicus [48]): 8.7
Excretion K+ (Rattus norvegicus [49]): 0.34 m equiv
V (Canis familiaris [50]): 62 mL
Excretion K+ (Rattus norvegicus [51]): 1.9 m equiv
Excretion Na+ (Canis familiaris [53]): 13.1 m equiv
Compound: C1CCC(N=C(NC2CCCCC2)N2CCOCC2)CC1
TPR (Canis familiaris [2]): 0.56 mmHg·min·kg/mL
CI (Canis familiaris [3]): 11.2 L/h/kg
TVR (Canis familiaris [7]): 116 mmHg·min·g/mL
TVR (Canis familiaris [12]): 573 mmHg·min·g/mL
CI (Canis familiaris [17]): 15.6 L/h/kg
MAP (Canis familiaris [18]): 75 mmHg
TVR (Canis familiaris [20]): 37 mmHg·min·g/mL
TVR (Canis familiaris [21]): 43 mmHg·min·g/mL
MAP (Canis familiaris [26]): 101 mmHg
HR (Canis familiaris [27]): 87 beats min-1
HR (Canis familiaris [28]): 132 beats min-1
MAP (Canis familiaris [37]): 118 mmHg
TVR (Canis familiaris [38]): 100 mmHg·min·g/mL
CI (Canis familiaris [42]): 8.28 L/h/kg
TVR (Canis familiaris [43]): 340 mmHg·min·g/mL
TVR (Canis familiaris [45]): 264 mmHg·min·g/mL
TPR (Canis familiaris [47]): 0.3 mmHg·min·kg/mL
TVR (Canis familiaris [52]): 635 mmHg·min·g/mL
